Patent publication US7829063B2, “Development of molecular imaging probes for carbonic anhydrase-IX using click chemistry” (Siemens Medical Solutions USA, Inc., priority 2007, dated 2010)

target: T1, CA-IX (Homo sapiens, UniProt Q16790); test: Binding affinity (Kd) determination for CA-IX inhibitors, DNSA fluorescence competition assay, Scatchard plots; details: Table 3
T1 construct: His tag (C); purchased R&D Systems Inc. 2188-CA; host or cells: mouse myeloma cell line NS0
Method: General. […] The human red blood cells were obtained from Research Blood Components, LLC. All absorbance measurements were performed on a SPECTRA MAX M2 plate reader at 25° C. The LC/MS analyses were performed on an Agilent 1100 series LC/MSD (SL) using a 30×2.1 mm Zorbax C8 column with a Phenomenex C18 pre-column. Compound detection was accomplished by electrospray mass spectroscopy in positive selected ion mode (LC/MS-SIM). The elution solvents were acetonitrile and water, contained 0.05% TFA. Nuclear magnetic resonance (NMR) spectra were obtained on a Bruker AMX 300 MHz spectrometer or a Varian 400. 19F NMR spectra were recorded on a Bruker AMX 282.35 MHz or a Varian 400 spectrometer. The mass spectra were recorded on an Agilent 1100 series LC/MSD with electrospray mass spectroscopic detection. Flash column chromatography was performed on Merck silica gel (40-63 μm) using the solvent system indicated. The radiochemical and chemical purities were analyzed by RP-HPLC.
General Procedure of Binding Affinity (Ka) Determination for CA-IX Inhibitors
The assay was based on the observation that the only fluorescence signal detected at 460 nm upon excitation at 290 nm, an absorption […] for DNSA, was that of the DNSA.CA complex. […] The latter were developed for each test compound using mass balance for calculating the concentration of CA bound to DNSA [DNSA.CA], bound to the non-fluorescent sample [CA.Inh] and free CA [CA] in solution. The Kd values were determined from Scatchard plots using the equation below as described by Whitesides et al. [CA.Inh]/[CA]tot.[Inh]=K11^inh−K11^inh{[CA.Inh]+[CA.DNSA]}/([CA]tot)
The terms [CA.DNSA], [CA.Inh], and free CA were calculated using the mass balance based on the known values for the dissociation constant of CA.DNSA and the total concentration of CA in each reaction.

SMILES | Kd [nM]
NS(=O)(=O)c1nc2ccc(OCc3cn([C@@H](CCCCNC(=O)CCC(=O)O)C(=O)NCc4ccc(C(F)(F)F)cc4)nn3)cc2s1 [BD2-47, (S)-4-oxo-4-(6-oxo-5-(4-((2-sulfamoylbenzo[d]thiazol-6-yloxy)methyl)-1H-1,2,3-triazol-1-yl)-6-(4-(trifluoromethyl)benzylamino)hexylamino)butanoic acid] | 20
NS(=O)(=O)c1nc2ccc(OCc3cn(CC(=O)N(CC(=O)O)Cc4ccc(C(F)(F)F)cc4)nn3)cc2s1 [BD3-36, 2-(2-(4-((2-sulfamoylbenzo[d]thiazol-6-yloxy)methyl)-1H-1,2,3-triazol-1-yl)-N-(4-(trifluoromethyl)benzyl)acetamido)acetic acid] | 14
NS(=O)(=O)c1nc2ccc(OCc3cn(CC(=O)N[C@H](CSCc4cccc(OCCn5cc(CCCF)nn5)c4)C(=O)O)nn3)cc2s1 [BW2-27, (S)-3-(3-(2-(4-(3-fluoropropyl)-1H-1,2,3-triazol-1-yl)ethoxy)benzylthio)-2-(2-(4-((2-sulfamoylbenzo[d]thiazol-6-yloxy)methyl)-1H-1,2,3-triazol-1-yl)acetamido)propanoic acid] | 10
COC(=O)[C@@H](CSCc1cccc(OCCOCCOCCF)c1)NC(=O)Cn1cc(COc2ccc3nc(S(N)(=O)=O)sc3c2)nn1 [BW2-41, (S)-methyl 3-(3-(2-(2-(2-fluoroethoxy)ethoxy)ethoxy)benzylthio)-2-(2-(4-((2-sulfamoylbenzo[d]thiazol-6-yloxy)methyl)-1H-1,2,3-triazol-1-yl)acetamido)propanoate] | 5
NS(=O)(=O)c1nc2ccc(OCc3cn(CC(=O)N[C@H](CSCc4cccc(OCCOCCOCCF)c4)C(=O)O)nn3)cc2s1 [BW2-45, (S)-3-(3-(2-(2-(2-fluoroethoxy)ethoxy)ethoxy)benzylthio)-2-(2-(4-((2-sulfamoylbenzo[d]thiazol-6-yloxy)methyl)-1H-1,2,3-triazol-1-yl)acetamido) propanoic acid] | 5
CCOC(=O)C1CCN(C(=O)[C@H](C(C)C)n2cc(COc3ccc4nc(S(N)(=O)=O)sc4c3)nn2)CC1 [DHK2-41] | 5
CC(C)[C@@H](C(=O)NCC1COc2ccccc2O1)n1cc(COc2ccc3nc(S(N)(=O)=O)sc3c2)nn1 (stereo partly drawn) [DHK2-44] | 5
NS(=O)(=O)c1nc2ccc(OCc3cn([C@@H](Cc4ccccc4)C(=O)NCc4ccc(C(F)(F)F)cc4)nn3)cc2s1 [DHK2-51, (S)-3-phenyl-2-(4-((2-sulfamoylbenzo[d]thiazol-6-yloxy)methyl)-1H-1,2,3-triazol-1-yl)-N-(4-(trifluoromethyl)benzyl)propanamide] | 2.5
CCOC(=O)C1CCN(C(=O)[C@H](Cc2ccccc2)n2cc(COc3ccc4nc(S(N)(=O)=O)sc4c3)nn2)CC1 [DHK2-68] | 3.4
NS(=O)(=O)c1nc2ccc(OCc3cn([C@@H](Cc4ccccc4)C(=O)NCC4COc5ccccc5O4)nn3)cc2s1 (stereo partly drawn) [DHK2-71] | 2.5
CC(C)[C@@H](C(=O)N1CCC(C(=O)O)CC1)n1cc(COc2ccc3nc(S(N)(=O)=O)sc3c2)nn1 [DHK2-84] | 10
NS(=O)(=O)c1nc2ccc(OCc3cn([C@@H](Cc4ccccc4)C(=O)N4CCC(C(=O)O)CC4)nn3)cc2s1 [DHK2-94] | 10
CC(C)[C@@H](C(=O)NCc1ccc(CN(C)C)o1)n1cc(-c2ccc(S(N)(=O)=O)cc2)nn1 [DHK2-95] | 25
CCOC(=O)C1CCN(C(=O)[C@H](Cc2ccc(OCCF)cc2)n2cc(COc3ccc4nc(S(N)(=O)=O)sc4c3)nn2)CC1 [DHK2-118] | 5
NS(=O)(=O)c1nc2ccc(OCc3cn([C@@H](Cc4ccc(OCCF)cc4)C(=O)NCc4ccc(C(F)(F)F)cc4)nn3)cc2s1 [DHK2-119] | 3.4
NS(=O)(=O)c1nc2ccc(OCc3cn([C@@H](Cc4ccc(OCCF)cc4)C(=O)N4CCC(C(=O)O)CC4)nn3)cc2s1 [DHK2-120] | 5
COC(=O)C[C@H](NC(=O)[C@H](Cc1ccc(OCCF)cc1)n1cc(COc2ccc3nc(S(N)(=O)=O)sc3c2)nn1)c1ccccc1 [DHK2-128] | 10
COC(=O)C[C@H](NC(=O)[C@H](C(C)C)n1cc(COc2ccc3nc(S(N)(=O)=O)sc3c2)nn1)c1ccc(C(F)(F)F)cc1 [DHK2-130] | 5
NS(=O)(=O)c1nc2ccc(OCc3cn([C@@H](Cc4ccc(OCCF)cc4)C(=O)N[C@@H](CC(=O)O)c4ccccc4)nn3)cc2s1 [DHK2-135] | 5
C[N+](C)(C)C[C@H](O)CC(=O)NCCCC[C@@H](C(=O)NCc1ccc(C(F)(F)F)cc1)n1cc(COc2ccc3nc(S(N)(=O)=O)sc3c2)nn1 [DHK2-147] | 11
N[C@@H](CO)C(=O)NCCCC[C@@H](C(=O)NCc1ccc(C(F)(F)F)cc1)n1cc(COc2ccc3nc(S(N)(=O)=O)sc3c2)nn1 [DHK2-157] | 25
CC(C)[C@@H](C(=O)N[C@H](Cc1ccc(C(F)(F)F)cc1)C(=O)O)n1cc(COc2ccc3nc(S(N)(=O)=O)sc3c2)nn1 [DHK2-160-F1] | 10
CC(C)[C@@H](C(=O)N[C@H](Cc1ccc(C(F)(F)F)cc1)C(=O)O)n1cc(COc2ccc3nc(S(N)(=O)=O)sc3c2)nn1 [DHK2-160-F2] | 5
NS(=O)(=O)c1nc2ccc(OCc3cn([C@@H](Cc4ccc(OCCF)cc4)C(=O)N[C@H](Cc4ccc(C(F)(F)F)cc4)C(=O)O)nn3)cc2s1 [DHK2-161] | 5
NS(=O)(=O)c1nc2ccc(OCc3cn([C@@H](Cc4ccc(OCCF)cc4)C(=O)NCc4ccc(OC(F)(F)F)cc4)nn3)cc2s1 [DHK2-176] | 5
NS(=O)(=O)c1nc2ccc(OCc3cn([C@@H](Cc4ccc(OCCF)cc4)C(=O)N[C@@H](Cc4c[nH]c5ccccc45)C(=O)O)nn3)cc2s1 [DHK2-180] | 14
N#Cc1ccc(C[C@H](CC(=O)[C@H](Cc2ccc(OCCF)cc2)n2cc(COc3ccc4nc(S(N)(=O)=O)sc4c3)nn2)C(=O)O)cc1 [DHK2-187] | 17

The remaining molecules from weak to strong by Kd, led by results:

Kd [nM] | SMILES
2.5 | CC1(C)O[C@@H](CF)[C@H](COc2ccc(CC(C(=O)NC(Cc3ccc(C(F)(F)F)cc3)C(=O)O)n3cc(COc4ccc5nc(S(N)(=O)=O)sc5c4)nn3)cc2)O1 (stereo partly drawn) [BW-369-1B]
2 | Cc1onc(-c2ccccc2)c1CNC(=O)[C@H](Cc1ccccc1)n1cc(COc2ccc3nc(S(N)(=O)=O)sc3c2)nn1 [DHK2-66]
2 | COC(=O)[C@H](Cc1ccc(C(F)(F)F)cc1)NC(=O)[C@H](Cc1ccc(OCCF)cc1)n1cc(COc2ccc3nc(S(N)(=O)=O)sc3c2)nn1 [DHK2-127, (S)-methyl 2-((S)-3-(4-(2-fluoroethoxy)phenyl)-2-(4-((2-sulfamoylbenzo[d]thiazol-6-yloxy)methyl)-1H-1,2,3-triazol-1-yl)propanamido)-3-(4-(trifluoromethyl)phenyl)propanoate]
2 | NS(=O)(=O)c1nc2ccc(OCc3cn([C@@H](Cc4ccc(OCC(O)CF)cc4)C(=O)N[C@@H](Cc4ccc(C(F)(F)F)cc4)C(=O)O)nn3)cc2s1 (stereo partly drawn) [DHK2-173, (2S)-2-((2S)-3-(4-(3-fluoro-2-hydroxypropoxy)phenyl)-2-(4-((2-sulfamoylbenzo[d]thiazol-6-yloxy)methyl)-1H-1,2,3-triazol-1-yl)propanamido)-3-(4-(trifluoromethyl)phenyl)propanoic acid]
2 | NS(=O)(=O)c1nc2ccc(OCc3cn([C@@H](Cc4ccc(OCCF)cc4)C(=O)NC(Cc4cccc(C(F)(F)F)c4)C(=O)O)nn3)cc2s1 (stereo partly drawn) [DHK2-181]
1.7 | COC(=O)[C@H](Cc1ccc(C(F)(F)F)cc1)NC(=O)[C@H](C(C)C)n1cc(COc2ccc3nc(S(N)(=O)=O)sc3c2)nn1 [BW-96, (S)-methyl 2-((S)-3-methyl-2-(4-((2-sulfamoylbenzo[d]thiazol-6-yloxy)methyl)-1H-1,2,3-triazol-1-yl)butanamido)-3-(4-(trifluoromethyl)phenyl) propanoate]
1.7 | CC1(C)O[C@@H](CF)[C@H](COc2ccc(CC(C(=O)NC(Cc3ccc(C(F)(F)F)cc3)C(=O)O)n3cc(COc4ccc5nc(S(N)(=O)=O)sc5c4)nn3)cc2)O1 (stereo partly drawn) [BW-139-1A]
1.7 | CC(C)[C@@H](C(=O)N[C@@H](CC(=O)O)c1ccc(C(F)(F)F)cc1)n1cc(COc2ccc3nc(S(N)(=O)=O)sc3c2)nn1 [DHK2-133]
1.2 | COC(=O)[C@H](Cc1ccc(C(F)(F)F)cc1)NC(=O)[C@H](C(C)C)n1cc(COc2ccc3nc(S(N)(=O)=O)sc3c2)nn1 [DHK2-129]
1 | CC(C)[C@@H](C(=O)NCc1ccc(C(F)(F)F)cc1)n1cc(COc2ccc3nc(S(N)(=O)=O)sc3c2)nn1 [DHK2-24]
0.5 | CC(C)[C@@H](C(=O)N[C@@H](Cc1ccc(C(F)(F)F)cc1)C(=O)O)n1cc(COc2ccc3nc(S(N)(=O)=O)sc3c2)nn1 [DHK2-132]
0.5 | NS(=O)(=O)c1nc2ccc(OCc3cn([C@@H](Cc4ccc(OCCF)cc4)C(=O)N[C@@H](Cc4ccc(C(F)(F)F)cc4)C(=O)O)nn3)cc2s1 [DHK2-134, (S)-2-((S)-3-(4-(2-fluoroethoxy)phenyl)-2-(4-((2-sulfamoylbenzo[d]thiazol-6-yloxy)methyl)-1H-1,2,3-triazol-1-yl)propanamido)-3-(4-(trifluoromethyl)phenyl)propanoic acid]
